The results in this text go back to patent publication US11603355B2, “Charged ion channel blockers and methods for use” (Nocion Therapeutics, Inc., priority 2019, dated 2023).

In data set [1] the target is T1, NaV1.7 (Homo sapiens, UniProt Q15858).
T1 construct: expressed in transfected cells; host or cells: HEK293 (tetracycline-inducible)
The experiment in a line: Manual patch clamp, internal block of NaV1.7 current. As to conditions: compound in internal solution, HEK293 cells; for inhibition at 3 µM / inhibition at 10 µM: read-out: Nav1.7 Intracellular Inhibition; for inhibition at 10 µM: % inhibition at 10 μM test concentration. The data set is classed as cell-based. A digest of the protocol: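 Whole-cell recordings at room temperature in tetracycline-induced HEK293 cells, compound in CsCl internal solution (pH 7.2), held at −100 mV with 10 ms steps to −20 mV. Four 30 s 5 Hz trains after 5 min baseline; fraction of peak inward current remaining computed as Itest/Ibaseline.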
A general note: The patch-clamp technique gives a direct electrical read-out from membranes.

Data set [2] in a line: PAMPA membrane permeability assay. The class given is in vitro ADME. The conditions noted are these: permeability coefficient, pH 7.4 buffer, GIT lipid, 4 hours incubation. A digest of the protocol: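 Passive diffusion across a GIT-lipid-painted artificial membrane at pH 7.4, with a 50 uM donor stock diluted from DMSO and a 4 h incubation. UV spectra of the donor, acceptor and reference plates were read, and the permeability coefficient was calculated from the AUCs, in 10^−6 cm/s.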

Setting [3] is: % inhibition at 3 μM test concentration.

Where a name gives a salt, the structure may show the parent alone.

T1 sequence (Q15858 whole entry): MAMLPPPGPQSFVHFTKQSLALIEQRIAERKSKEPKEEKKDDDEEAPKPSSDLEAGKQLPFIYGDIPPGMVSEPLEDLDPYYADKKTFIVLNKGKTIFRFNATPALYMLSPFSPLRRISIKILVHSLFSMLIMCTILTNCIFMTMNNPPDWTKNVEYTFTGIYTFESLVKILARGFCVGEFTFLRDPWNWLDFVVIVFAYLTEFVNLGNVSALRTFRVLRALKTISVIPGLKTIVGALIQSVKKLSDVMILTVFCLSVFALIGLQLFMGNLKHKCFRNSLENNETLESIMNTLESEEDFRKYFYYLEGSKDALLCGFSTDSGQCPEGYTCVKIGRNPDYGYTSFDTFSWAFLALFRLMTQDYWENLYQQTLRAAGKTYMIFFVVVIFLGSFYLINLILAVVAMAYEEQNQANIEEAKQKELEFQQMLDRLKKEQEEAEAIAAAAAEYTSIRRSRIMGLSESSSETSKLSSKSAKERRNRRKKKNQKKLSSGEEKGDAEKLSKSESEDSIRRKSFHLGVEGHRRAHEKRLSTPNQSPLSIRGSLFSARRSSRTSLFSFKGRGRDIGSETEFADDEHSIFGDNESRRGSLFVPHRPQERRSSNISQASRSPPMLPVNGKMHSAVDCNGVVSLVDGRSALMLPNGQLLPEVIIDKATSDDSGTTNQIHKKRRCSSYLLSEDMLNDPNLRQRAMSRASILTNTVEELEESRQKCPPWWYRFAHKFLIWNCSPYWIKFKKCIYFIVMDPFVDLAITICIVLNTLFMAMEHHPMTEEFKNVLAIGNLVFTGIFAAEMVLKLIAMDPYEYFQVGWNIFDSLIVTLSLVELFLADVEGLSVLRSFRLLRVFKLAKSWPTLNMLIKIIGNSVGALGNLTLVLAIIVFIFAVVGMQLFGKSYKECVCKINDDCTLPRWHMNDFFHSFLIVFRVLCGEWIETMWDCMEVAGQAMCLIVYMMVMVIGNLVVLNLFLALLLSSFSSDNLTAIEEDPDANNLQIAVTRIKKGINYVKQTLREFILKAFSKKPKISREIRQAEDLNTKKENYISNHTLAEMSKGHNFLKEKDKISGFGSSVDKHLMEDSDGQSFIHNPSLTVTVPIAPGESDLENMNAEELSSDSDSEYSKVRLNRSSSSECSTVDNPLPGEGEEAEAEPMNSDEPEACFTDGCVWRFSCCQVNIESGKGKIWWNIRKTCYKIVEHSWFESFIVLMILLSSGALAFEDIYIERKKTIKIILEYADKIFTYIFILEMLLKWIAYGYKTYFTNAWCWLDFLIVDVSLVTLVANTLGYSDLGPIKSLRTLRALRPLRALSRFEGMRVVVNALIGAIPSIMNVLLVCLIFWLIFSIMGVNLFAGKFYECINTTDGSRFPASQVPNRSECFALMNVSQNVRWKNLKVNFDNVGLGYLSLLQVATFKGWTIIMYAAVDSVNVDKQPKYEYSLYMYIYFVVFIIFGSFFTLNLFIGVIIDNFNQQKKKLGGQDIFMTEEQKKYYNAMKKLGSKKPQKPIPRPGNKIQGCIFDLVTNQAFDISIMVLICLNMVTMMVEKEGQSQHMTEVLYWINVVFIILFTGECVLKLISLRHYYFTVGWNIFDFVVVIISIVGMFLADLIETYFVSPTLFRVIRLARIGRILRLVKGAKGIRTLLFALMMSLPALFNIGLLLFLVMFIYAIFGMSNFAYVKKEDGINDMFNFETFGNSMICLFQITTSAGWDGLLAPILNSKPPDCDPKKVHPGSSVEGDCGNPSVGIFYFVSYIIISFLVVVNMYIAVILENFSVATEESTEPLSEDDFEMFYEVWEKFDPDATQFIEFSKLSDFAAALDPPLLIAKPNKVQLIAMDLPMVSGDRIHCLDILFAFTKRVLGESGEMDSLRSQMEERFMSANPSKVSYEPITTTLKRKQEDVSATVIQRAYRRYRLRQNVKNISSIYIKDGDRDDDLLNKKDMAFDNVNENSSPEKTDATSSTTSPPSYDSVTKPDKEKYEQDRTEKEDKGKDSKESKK

Take “1-benzyl-1-(2-((2-(dimethylcarbamoyl)-6-methylphenyl) amino)-2-oxoethyl) azepan-1-ium bromide [Compound 81A]”: the “Nav1.7 Intracellular Inhibition” value in data set [1] (setting [3]) is recorded as “+++ (“+++” 90-70%)”. In addition, the “PAMPA (10^−6 cm/s)” value in data set [2] is “+ (“+” (<0.1 10^−6 cm/s))”.
Regarding `Cc1cccc(C)c1NC(=O)C[N+]1(Cc2ccccc2)CCCC(C(=O)OC(C)C)C1` (mixture of isomers) [Compound 46A, 1-benzyl-1-(2-((2,6-dimethylphenyl)amino)-2-oxoethyl)-3-(isopropoxycarbonyl) piperidin-1-ium trifluoroacetate salt], the inhibition at 3 µM in data set [1] (setting [3]) is above 90%. For the same compound, in data set [2], the “PAMPA (10^−6 cm/s)” value is “+ (“+” (<0.1 10^−6 cm/s))”.
Turning to `Cc1cccc(C)c1NC(=O)C[N+]1(Cc2ccccc2)CCCC(C(N)=O)C1.[Br-]` (mixture of isomers) [Compound 53A, 1-benzyl-3-carbamoyl-1-(2-((2,6-dimethylphenyl)amino)-2-oxoethyl) piperidin-1-ium bromide], the inhibition at 3 µM in data set [1] (setting [3]) fell in the range of 70 to 90%. Further, the “PAMPA (10^−6 cm/s)” value in data set [2] was “+ (“+” (<0.1 10^−6 cm/s))”.
In the same order, the values of `Cc1cccc(C)c1NC(=O)C[N+]1(Cc2ccccc2)CCCC(F)(F)C1.[Br-]` (centres unmarked) [Compound 32A, 1-benzyl-1-(2-((2,6-dimethylphenyl)amino)-2-oxoethyl)-3,3-difluoropiperidin-1-ium bromide] are above 90% and “+ (“+” (<0.1 10^−6 cm/s))”.
Take `[2H]c1c([2H])c([2H])c(C[N+]2(CC(=O)Nc3c(C)cccc3C)CCCCCC2)c([2H])c1[2H].[Cl-]` [Compound 33A, 1-(2-((2,6-dimethylphenyl)amino)-2-oxoethyl)-1-((phenyl-d5)methyl) azepan-1-ium chloride]: in data set [1] (setting [3]), the inhibition at 3 µM is above 90%. The “PAMPA (10^−6 cm/s)” value in data set [2] is recorded as “+ (“+” (<0.1 10^−6 cm/s))”.
In the case of `COC(=O)c1cccc(C[N+]2(CC(=O)Nc3c(C)cccc3C)CCCCC2)c1.[Br-]` [Compound 35A, 1-(2-((2,6-dimethylphenyl)amino)-2-oxoethyl)-1-(3-(methoxycarbonyl)benzyl) piperidin-1-ium bromide], the inhibition at 3 µM in data set [1] (setting [3]) was above 90%. Besides, the “PAMPA (10^−6 cm/s)” value in data set [2] was “+ (“+” (<0.1 10^−6 cm/s))”.
Consider `COC(=O)c1ccc(C[N+]2(CC(=O)Nc3c(C)cccc3C)CCCCC2)cc1.[Br-]` [Compound 36A, 1-(2-((2,6-dimethylphenyl)amino)-2-oxoethyl)-1-(4-(methoxycarbonyl)benzyl) piperidin-1-ium bromide], for which the inhibition at 3 µM in data set [1] (setting [3]) is 70 to 90%. For the same compound, the “PAMPA (10^−6 cm/s)” value in data set [2] is “+ (“+” (<0.1 10^−6 cm/s))”.
For `COC(=O)c1ccccc1C[N+]1(CC(=O)Nc2c(C)cccc2C)CCCCC1.[Br-]` [Compound 37A, 1-(2-((2,6-dimethylphenyl)amino)-2-oxoethyl)-1-(2-(methoxycarbonyl)benzyl) piperidin-1-ium bromide], the inhibition at 3 µM in data set [1] (setting [3]) was 70 to 90%. The inhibition at 10 µM in data set [1] lay in the range of 70 to 95%. In addition, the “PAMPA (10^−6 cm/s)” value in data set [2] is “+ (“+” (<0.1 10^−6 cm/s))”.
On to `Cc1cccc(C)c1N(C)C(=O)C[N+]1(Cc2ccccc2)CCCCCC1` [Compound 38A, 1-benzyl-1-(2-((2,6-dimethylphenyl) (methyl)amino)-2-oxoethyl) azepan-1-ium formate], for which, in data set [1] (setting [3]), the inhibition at 3 µM lay within 70 to 90%. For the same compound, the “PAMPA (10^−6 cm/s)” value in data set [2] is on record as “+ (“+” (<0.1 10^−6 cm/s))”.
Consider `CCCCNc1ccc(NC(=O)C[N+]2(Cc3ccccc3)CCCCCC2)cc1.O=C[O-]` [Compound 41A, 1-benzyl-1-(2-((4-(butylamino)phenyl)amino)-2-oxoethyl) azepan-1-ium formate], for which the inhibition at 10 µM in data set [1] fell in the range of 70 to 95%. For the same compound, the “PAMPA (10^−6 cm/s)” value in data set [2] was “+ (“+” (<0.1 10^−6 cm/s))”.
`COC(=O)C1CC[N+](CC(=O)Nc2c(C)cccc2C)(Cc2ccccc2)CC1.[Br-]` (centres unmarked) [Compound 44A, 1-benzyl-1-(2-((2,6-dimethylphenyl)amino)-2-oxoethyl)-4-(methoxycarbonyl) piperidin-1-ium bromide]: the inhibition at 3 µM in data set [1] (setting [3]) was above 90%. Moreover, in data set [2], the “PAMPA (10^−6 cm/s)” value is “+ (“+” (<0.1 10^−6 cm/s))”.
The like results for `CCOC(=O)C1CCC[N+](CC(=O)Nc2c(C)cccc2C)(Cc2ccccc2)C1.[Br-]` (centres unmarked) [Compound 45A, 1-benzyl-1-(2-((2,6-dimethylphenyl)amino)-2-oxoethyl)-3-(ethoxycarbonyl) piperidin-1-ium bromide] were, in that order, 70 to 90% and “+ (“+” (<0.1 10^−6 cm/s))”.
`CCCOC(=O)C1CCC[N+](CC(=O)Nc2c(C)cccc2C)(Cc2ccccc2)C1.[Br-]` (centres unmarked) [Compound 47A, 1-benzyl-1-(2-((2,6-dimethylphenyl)amino)-2-oxoethyl)-3-(propoxycarbonyl) piperidin-1-ium bromide]: the inhibition at 3 µM in data set [1] (setting [3]) was above 90%. Moreover, in data set [2], the “PAMPA (10^−6 cm/s)” value was “+ (“+” (<0.1 10^−6 cm/s))”.
In the same order, the values of `CCC(=O)OC1CCC[N+](CC(=O)Nc2c(C)cccc2C)(Cc2ccccc2)C1.[Br-]` (centres unmarked) [Compound 52A, 1-benzyl-1-(2-((2,6-dimethylphenyl)amino)-2-oxoethyl)-3-(propionyloxy) piperidin-1-ium bromide] are above 90% and “+ (“+” (<0.1 10^−6 cm/s))”.
In the case of `CCNC(=O)C1CCC[N+](CC(=O)Nc2c(C)cccc2C)(Cc2ccccc2)C1.[Br-]` (centres unmarked) [Compound 54A, 1-benzyl-1-(2-((2,6-dimethylphenyl)amino)-2-oxoethyl)-3-(ethylcarbamoyl) piperidin-1-ium bromide], the inhibition at 3 µM in data set [1] (setting [3]) was above 90%. In data set [2], the “PAMPA (10^−6 cm/s)” value was “+ (“+” (<0.1 10^−6 cm/s))”.
The like results for `CNC(=O)C1CCC[N+](CC(=O)Nc2c(C)cccc2C)(Cc2ccccc2)C1` (centres unmarked) [Compound 55A] were, in that order, 70 to 90% and “+++ (“+++” (2.0-10.010^−6 cm/s))”.
On to `Cc1cccc(C)c1NC(=O)C[N+]1(Cc2ccccc2)CCCC(C(=O)NC(C)C)C1` (centres unmarked) [Compound 56A], for which, in data set [1] (setting [3]), the inhibition at 3 µM was in the range of 40 to 70%. The “PAMPA (10^−6 cm/s)” value in data set [2] is recorded as “+ (“+” (<0.1 10^−6 cm/s))”.
In the same order, the values of `CCCNC(=O)C1CCC[N+](CC(=O)Nc2c(C)cccc2C)(Cc2ccccc2)C1` (centres unmarked) [Compound 57A] are 70 to 90% and “+ (“+” (<0.1 10^−6 cm/s))”.
Take `Cc1cccc(C)c1NC(=O)C[N+]1(Cc2ccccc2)CCCC(C(=O)N2CCCC2)C1` (centres unmarked) [Compound 62A]: the inhibition at 3 µM in data set [1] (setting [3]) is above 90%. Further, the “PAMPA (10^−6 cm/s)” value in data set [2] is listed as “+ (“+” (<0.1 10^−6 cm/s))”.
For the compound `Cc1cccc(C)c1NC(=O)C[N+]1(Cc2ccccc2)CCCC(C(=O)N2CCCCC2)C1` (centres unmarked) [Compound 63A], the inhibition at 3 µM in data set [1] (setting [3]) is above 90%. For the same compound, the “PAMPA (10^−6 cm/s)” value in data set [2] is reported as “+ (“+” (<0.1 10^−6 cm/s))”.
Turning to `Cc1cccc(C)c1NC(=O)C[N+]1(Cc2ccccc2)CCCC(C(=O)N(C)C)C1.[Br-]` (centres unmarked) [Compound 65A], the inhibition at 3 µM in data set [1] (setting [3]) is above 90%. Besides, in data set [2], the “PAMPA (10^−6 cm/s)” value is “+ (“+” (<0.1 10^−6 cm/s))”.
The like results for `CCN(CC)C(=O)C1CCC[N+](CC(=O)Nc2c(C)cccc2C)(Cc2ccccc2)C1` (centres unmarked) [Compound 66A] were, in that order, 70 to 90% and “+ (“+” (<0.1 10^−6 cm/s))”.
`CCCOC(=O)N1CCC[N+](CC(=O)Nc2c(C)cccc2C)(Cc2ccccc2)CC1.[Br-]` (centres unmarked) [Compound 68A, 1-benzyl-1-(2-((2,6-dimethylphenyl)amino)-2-oxoethyl)-4-(propoxycarbonyl)-1,4-diazepan-1-ium bromide]: the inhibition at 3 µM in data set [1] (setting [3]) is above 90%. For the same compound, the “PAMPA (10^−6 cm/s)” value in data set [2] is “+ (“+” (<0.1 10^−6 cm/s))”.
For the compound `Cc1cccc(F)c1NC(=O)C[N+]1(Cc2ccccc2)CCCCCC1.[Br-]` [Compound 69A, 1-benzyl-1-(2-((2-fluoro-6-methylphenyl)amino)-2-oxoethyl)azepan-1-ium bromide], the inhibition at 3 µM in data set [1] (setting [3]) is above 90%. The “PAMPA (10^−6 cm/s)” value in data set [2] is given as “++ (“++” (0.1-2.0 10^−6 cm/s))”.
On to `COc1cccc(C)c1NC(=O)C[N+]1(Cc2ccccc2)CCCCCC1` [Compound 71A], for which the inhibition at 3 µM in data set [1] (setting [3]) lay within 70 to 90%. In data set [2], the “PAMPA (10^−6 cm/s)” value is on record as “+ (“+” (<0.1 10^−6 cm/s))”.
As for `Cc1cccc(C#N)c1NC(=O)C[N+]1(Cc2ccccc2)CCCCCC1.[Br-]` [Compound 72A], in data set [1] (setting [3]), the inhibition at 3 µM was above 90%. Further, the “PAMPA (10^−6 cm/s)” value in data set [2] is reported as “+ (“+” (<0.1 10^−6 cm/s))”.
In the same order, the values of `Cc1cccc(C(C)C)c1NC(=O)C[N+]1(Cc2ccccc2)CCCCCC1.[Br-]` [Compound 74A] are 70 to 90% and “+ (“+” (<0.1 10^−6 cm/s))”.
In the same order, the values of `CCCc1cccc(C)c1NC(=O)C[N+]1(Cc2ccccc2)CCCCCC1.[Br-]` [Compound 75A] are above 90% and “+ (“+” (<0.1 10^−6 cm/s))”.
The like results for `Cc1cccc(-c2ccccc2)c1NC(=O)C[N+]1(Cc2ccccc2)CCCCCC1.[Br-]` [Compound 76A] were, in that order, above 90% and “+ (“+” (<0.1 10^−6 cm/s))”.
On to `CCOc1cccc(C)c1NC(=O)C[N+]1(Cc2ccccc2)CCCCCC1.[Br-]` [Compound 77A], for which the inhibition at 3 µM in data set [1] (setting [3]) fell in the range of 70 to 90%. For the same compound, in data set [2], the “PAMPA (10^−6 cm/s)” value is given as “+ (“+” (<0.1 10^−6 cm/s))”.
Take `CCC(=O)Oc1cccc(C)c1NC(=O)C[N+]1(Cc2ccccc2)CCCCCC1.[Br-]` [Compound 80A, 1-benzyl-1-(2-((2-methyl-6-(propionyloxy)phenyl)amino)-2-oxoethyl) azepan-1-ium bromide]: in data set [1] (setting [3]), the inhibition at 3 µM was above 90%. The “PAMPA (10^−6 cm/s)” value in data set [2] is reported as “+ (“+” (<0.1 10^−6 cm/s))”.
The like results for `Cc1cccc(C)c1C(=O)OCC[N+]1(Cc2ccccc2)CCCCCC1.[Br-]` [Compound 82A, 1-benzyl-1-(2-((2,6-dimethylbenzoyl)oxy)ethyl) azepan-1-ium bromide] were, in that order, 70 to 90% and “+ (“+” (<0.1 10^−6 cm/s))”.

Usually inhibition stands for how much of the control response was suppressed.
